Data published in patent publication US20260256794A1, “Oral Dynamine Formulations and Methods Therefor” (Ortho-Nutra, LLC, priority 2023, published 2026).

Columns and labels:
Type in all cases: in vivo, human
subjects [1] = test: VAS-Well-Being; set-up: VAS-Well-Being rating, Mean / VAS-Well-Being changes from baseline, Mean Difference ± SE / VAS-Well-Being area under the curve, Mean Difference ± SE / VAS-Well-Being area under the curve, Mean: scale not given here
Experimental: (§1) The inventors have discovered various compositions and methods of improving various indices of neurological and neuroenergetic functions by administering 100 mg (once daily) dosages of DYNAMINE™ (dosage between 1.0 and 1.4 mg/kg) as described in the following:
(§2) All neuroenergetic tests as listed below were performed and data were collected after 0 and 4 days of assigned supplements (with acute effects also measured at day 4 over 180 minutes):
(§3) All VAS Measurement (Energy, Sustained Energy, Mental Stamina, Ability to Focus, Ability to Concentrate, Motivation to Accomplish Difficult Tasks, Drive, Vigor, Level of Positive Outlook, Mood, Feelings of Well-Being, Tolerate Stress); Day 0: Two tests were completed. The average of both scores was computed and this value was used in all statistical analysis. Day 4 (0 minutes after ingesting dose #4): Two tests were completed. The average of both scores was computed and this value was used in all statistical analysis. Day 4 (60, 120, and 180 minutes after ingesting dose #4): One test was completed at each time point.
(§4) Neuroenergic parameters are inherently subjective, nevertheless significant in human behavior and well-being. To allow for a standardization among different subjects, the following experiments were performed using a visual analog scale using anchor statements (lowest possible/highest possible) in which subjects were asked to rate their subjective experience with respect to the specific neuroenergic parameters tested.
VAS-Well-Being: In this subjective test, subjects were asked to rate their personal level of energy on a VAS scale using the prompt of “My feeling of well-being right now is . . . ” (with rating lowest possible to highest possible)”. Results were collected as noted above and Table 34 provides exemplary results for Day 0 versus Day 4 ratings, whereas Table 35 provides exemplary acute results measured at Day 4 over a duration of 180 minutes.

subjects [2] = test: Hemodynamics: systolic blood pressure; details: for Systolic blood pressure changes from baseline, Mean Difference ± SE / Systolic blood pressure changes from baseline, effect size d: between groups (placebo)
Experimental: as §1
Hemodynamics Systolic Blood Pressure, Diastolic Blood Pressure, Heart Rate were taken Pre and Post Stroop Test on Day 0; Pre and Post Stroop Test after 4 Days of Supplementation 0, 60, 120, and 180 minutes after ingestion of 4th dose.
For hemodynamic parameters, systolic blood pressure, diastolic blood pressure, and heart rate were taken pre- and post-Stroop Test on Day 0, and pre- and post-Stroop Test after 4 Days of Supplementation 0, 60, 120, and 180 minutes after ingestion of 4th dose.

subjects [3] = test: Stroop-Accuracy
Experimental: as §1, §2
Stroop Color Matching Test (Total Score, Accuracy %, Average Score): Day 0: Two blocks of three tests were completed. Each block of three tests was separated by 10 minutes. The median of each block was taken and then those two scores were averaged. This value was used in all statistical analysis. Day 4: Three tests were completed at four time points: after 0, 60, 120, and 180 minutes of taking dose #4. The median of the three tests at each time point was used in all statistical analysis.
The Stroop Color and Word Test (SCWT, or Stroop test) is a neuropsychological test extensively used to assess the ability to inhibit cognitive interference that occurs when the processing of a specific stimulus feature impedes the simultaneous processing of a second stimulus attribute, well-known as the Stroop effect (see e.g., Front Psychol. 2017; 8:557). Here, subjects were required to read three different tables as fast as possible. Two of them represent the “congruous condition” in which participants are required to read names of colors (‘color-words’) printed in black ink (W) and name different color patches (C). However, in the third table, the color-word (CW) condition, color-words are printed in an inconsistent color ink (e.g., the word “red” is printed in green ink). In this incongruent condition, participants are required to name the color of the ink instead of reading the word. In other words, the participants are required to perform a less automated task (i.e., naming ink color) while inhibiting the interference arising from a more automated task (i.e., reading the word). This difficulty in inhibiting the more automated process is called the Stroop effect. The Stroop test is predominantly used to measure the ability to inhibit cognitive interference. However, some sources also report its application to measure other cognitive functions such as attention, processing speed, cognitive flexibility, and working memory.
Stroop-Accuracy: The results for this test were based on an accuracy score comparing performance between Day 0 and Day 4, with Day 4 including tests over a duration of 180 minutes. Results were collected as noted above and Table 43 provides exemplary results for Day 0 versus Day 4 ratings, whereas Table 44 provides exemplary acute results measured at Day 4 over a duration of 180 minutes.

subjects [4] = test: VAS-Vigor; set-up: VAS-Vigor rating, Mean / VAS-Vigor changes from baseline, Mean Difference ± SE / VAS-Vigor area under the curve, Mean Difference ± SE / VAS-Vigor area under the curve, Mean: scale not given here
Experimental: as §1, §2, §3, §4
VAS-Vigor: In this subjective test, subjects were asked to rate their personal level of energy on a VAS scale using the prompt of “My level of vigor right now is . . . ” (with rating lowest possible to highest possible)”. Results were collected as noted above and Table 25 provides exemplary results for Day 0 versus Day 4 ratings, whereas Table 26 provides exemplary acute results measured at Day 4 over a duration of 180 minutes. […] Of note, it should be appreciated that drive is also often a function of dopamine activation. As above, is it therefore contemplated that methylliberine may also have an agonist effect on dopamine receptors or signaling.

[5] = 100 mg once daily, Day 4, 0-180 min
[6] = 100 mg once daily, Day 4, 0-180 min, vs Group A (placebo)
[7] = 100 mg once daily, Day 4, 0 min after dose #4
[8] = 100 mg once daily, Day 4, 60 min-0 min, vs Group A (placebo)
[9] = 100 mg once daily, Day 4, 60 min after dose #4
[10] = 100 mg once daily, Day 4, 120 min-0 min, vs Group A (placebo)
[11] = 100 mg once daily, Day 4, 120 min after dose #4
[12] = 100 mg once daily, Day 4, 180 min-0 min, vs Group A (placebo)
[13] = 100 mg once daily, Day 4, 180 min after dose #4
[14] = 100 mg once daily, Day 4, 60 min-0 min
[15] = 100 mg once daily, Day 4, 120 min-0 min
[16] = 100 mg once daily, Day 4, 180 min-0 min

COc1nc2c(c(=O)n1C)n(C)c(=O)n2C [methylliberine, 2-methoxy-1,7,9-trimethylpurine-6,8-dione]
VAS-Well-Being area under the curve, Mean (subjects [1]; [5]): 1239
VAS-Well-Being area under the curve, Mean Difference ± SE (subjects [1]; [6]): 14.9 ± 43.0
VAS-Well-Being area under the curve, effect size d (subjects [1]; [6]): −0.05
VAS-Well-Being rating, Mean (subjects [1]; [7]): 6.4
VAS-Well-Being changes from baseline, Mean Difference ± SE (subjects [1]; [8]): 0.16 ± 0.16
VAS-Well-Being changes from baseline, effect size d (subjects [1]; [8]): 0.22
VAS-Well-Being rating, Mean (subjects [1]; [9]): 6.8
VAS-Well-Being changes from baseline, Mean Difference ± SE (subjects [1]; [10]): 0.46 ± 0.29
VAS-Well-Being changes from baseline, effect size d (subjects [1]; [10]): 0.45
VAS-Well-Being rating, Mean (subjects [1]; [11]): 7.3
VAS-Well-Being changes from baseline, Mean Difference ± SE (subjects [1]; [12]): 0.54 ± 1.34
VAS-Well-Being changes from baseline, effect size d (subjects [1]; [12]): 0.52
VAS-Well-Being rating, Mean (subjects [1]; [13]): 7.2
VAS-Well-Being rating, Mean (subjects [1]; Day 0 (before supplementation)): 6.8
Systolic blood pressure, Mean (subjects [2]; 100 mg once daily, Day 4, 0 min after 4th dose): 121.4 mm Hg
Systolic blood pressure changes from baseline, Mean Difference ± SE (subjects [2]; [14]): 1.16 ± 2.57 mm Hg
Systolic blood pressure changes from baseline, effect size d (subjects [2]; [14]): −0.12
Systolic blood pressure, Mean (subjects [2]; 100 mg once daily, Day 4, 60 min after 4th dose): 117.9 mm Hg
Systolic blood pressure changes from baseline, Mean Difference ± SE (subjects [2]; [15]): −0.60 ± 2.22 mm Hg
Systolic blood pressure changes from baseline, effect size d (subjects [2]; [15]): 0.06
Systolic blood pressure, Mean (subjects [2]; 100 mg once daily, Day 4, 120 min after 4th dose): 120.6 mm Hg
Systolic blood pressure changes from baseline, Mean Difference ± SE (subjects [2]; [16]): 2.40 ± 2.25 mm Hg
Systolic blood pressure changes from baseline, effect size d (subjects [2]; [16]): −0.27
Systolic blood pressure, Mean (subjects [2]; 100 mg once daily, Day 4, 180 min after 4th dose): 120.0 mm Hg
Systolic blood pressure, Mean (subjects [2]; Day 0 (before supplementation)): 118.6 mm Hg
Stroop accuracy, Mean (subjects [3]; [7]): 99.2%
Stroop accuracy, Mean (subjects [3]; [9]): 99.1%
Stroop accuracy, Mean (subjects [3]; [11]): 99.0%
Stroop accuracy, Mean (subjects [3]; [13]): 98.9%
Stroop accuracy, Mean (subjects [3]; Day 0 (before supplementation)): 99.2%
VAS-Vigor area under the curve, Mean (subjects [4]; [5]): 1112
VAS-Vigor area under the curve, Mean Difference ± SE (subjects [4]; [6]): 21.8 ± 41.5
VAS-Vigor area under the curve, effect size d (subjects [4]; [6]): 0.07
VAS-Vigor rating, Mean (subjects [4]; [7]): 5.8
VAS-Vigor changes from baseline, Mean Difference ± SE (subjects [4]; [8]): 0.02 ± 0.23
VAS-Vigor changes from baseline, effect size d (subjects [4]; [8]): 0.02
VAS-Vigor rating, Mean (subjects [4]; [9]): 6.2
VAS-Vigor changes from baseline, Mean Difference ± SE (subjects [4]; [10]): −0.12 ± 0.25
VAS-Vigor changes from baseline, effect size d (subjects [4]; [10]): 0.13
VAS-Vigor rating, Mean (subjects [4]; [11]): 6.3
VAS-Vigor changes from baseline, Mean Difference ± SE (subjects [4]; [12]): 0.43 ± 0.28
VAS-Vigor changes from baseline, effect size d (subjects [4]; [12]): −0.41
VAS-Vigor rating, Mean (subjects [4]; [13]): 6.4
VAS-Vigor rating, Mean (subjects [4]; Day 0 (before supplementation)): 5.8
